Assays:
Type in all cases: physicochemical
[1] = API and excipients compatibility study (10 days of stress testing of mixed powders)
[2] = Risk assessment of the API and excipients compatibility
Excerpt: Level 1 (low risk): maximum single impurity is less than 0.1% and total impurity is less than 0.2%;
Level 2 (medium risk): maximum single impurity is 0.1-0.2% or total impurity is 0.2%-0.4%;
Level 3 (high risk): maximum single impurity is more than 0.2% or total impurity is more than 0.4%.

[3] = Accelerated stability test, detection of impurity A and total impurity by HPLC; conditions: active ingredient alone, accelerated stability test at 40° C. for 6 months
Excerpt: The method for detecting impurity A and total impurity was shown as follows:
Equipment: Agilent 1260 series;
Column: XBridge Shield RP18 column (100×4.6 mm, 3.5 μm);
Mobile phase A: 0.05 mol/L potassium dihydrogen phosphate solution (adjusted to pH 7.2 with sodium hydroxide solution)-acetonitrile (20:80);
Mobile phase B: 0.05 mol/L potassium dihydrogen phosphate solution (adjusted to pH 7.2 with sodium hydroxide solution)-acetonitrile (40:60);
Detection wavelength: 247 nm;
Column temperature: 30° C.;
Solvent: acetonitrile-water (50:50).

[4] = Day 10, Illumination (4500 ± 5001x)

Maximum single impurity (%) ([1]; Day 0): 0.02% | Total impurity (%) ([1]; Day 0): 0.02% | Maximum single impurity (%) ([1]; Day 10, 60° C. ± 2° C.): 0.02% | Total impurity (%) ([1]; Day 10, 60° C. ± 2° C.): 0.04% | Maximum single impurity (%) [1, 4]: 0.12% | Total impurity (%) [1, 4]: 0.14% | Maximum single impurity (%) ([1]; Day 10, RH75% ± 5%): 0.02% | Total impurity (%) ([1]; Day 10, RH75% ± 5%): 0.02% | Maximum single impurity (%) ([1]; Day 10, RH92.5% ± 5%): 0.02% | Total impurity (%) ([1]; Day 10, RH92.5% ± 5%): 0.02% | Risk level assessment value Total ([2]; sum over RH75%, RH92.5%, 60° C., Illumination): 5 | change in the content of impurities in the active ingredient [3]: no significant change
SMILES: CCOc1cc2ncnc(Nc3ccc(F)c(Cl)c3)c2cc1NC(=O)/C=C/CN(C)C [API, (E)-N-(4-((3-chloro-4-fluorophenyl)amino)-7-ethoxyquinazolin-6-yl)-4-(dimethylamino)but-2-enamide]
Risk level assessment value 60° C. ([2]; 60° C., 10 days stress testing): 1 (Level 1 (low risk): maximum single impurity is less than 0.1% and total impurity is less than 0.2%) | Risk level assessment value Illumination ([2]; Illumination, 10 days stress testing): 2 (Level 2 (medium risk): maximum single impurity is 0.1-0.2% or total impurity is 0.2%-0.4%) | Risk level assessment value RH75% ([2]; RH75%, 10 days stress testing): 1 (Level 1 (low risk): maximum single impurity is less than 0.1% and total impurity is less than 0.2%) | Risk level assessment value RH92.5% ([2]; RH92.5%, 10 days stress testing): 1 (Level 1 (low risk): maximum single impurity is less than 0.1% and total impurity is less than 0.2%)
